These results are taken from patent US6559140B2 (Abbott Laboratories, priority 2000, dated 2003).

The structures appear in SMILES notation.

For the assay, the target named is H3 receptor (Rattus norvegicus, UniProt Q9QYN8). As to the kind of experiment: H3 receptor binding, (3H)-N-α-methylhistamine displacement in rat cortical membranes. As to conditions: male Sprague-Dawley rat brain cortical membranes, 30 minutes at 25° C., Cheng-Prusoff, geometric mean values of 2-10 separate experiments. On the procedure: Briefly, male Sprague-Dawley rat brain cortices were homogenized (1 g tissue/10 mL buffer) in 50 mM Tris-HCl/5 mM EDTA containing protease inhibitor cocktail (Calbiochem) using a polytron set at 20,500 rpm. Homogenates were centrifuged for 20 minutes at 40,000×g. The supernatant was decanted, and pellets were weighed. The pellet was resuspended by polytron homogenization in 40 mL 50 mM Tris-HCl/5 mM EDTA with protease inhibitors and centrifuged for 20 minutes at 40,000×g. […] Test compounds were added to the incubation mixtures prior to initiating the incubation assay by addition of the membranes. Thioperamide (3 μM) was used to determine nonspecific binding. Binding incubations were conducted for 30 minutes at 25° C. and terminated by addition of 2 mL of ice cold 50 mM Tris-HCl (H 7.7) and filtration through 0.3% polyethylenimine-soaked Unifilter plates (Packard). These filters were washed 4 additional times with 2 mL of ice-cold 50 mM Tris-HCl and dried for 1 hour. Radioactivity was determined using liquid scintillation counting techniques. Results were analyzed by Hill transformation and Ki values were determined using the Cheng-Prusoff equation.
Sequence of H3 receptor (Q9QYN8 1-397 isoform Q9QYN8-3): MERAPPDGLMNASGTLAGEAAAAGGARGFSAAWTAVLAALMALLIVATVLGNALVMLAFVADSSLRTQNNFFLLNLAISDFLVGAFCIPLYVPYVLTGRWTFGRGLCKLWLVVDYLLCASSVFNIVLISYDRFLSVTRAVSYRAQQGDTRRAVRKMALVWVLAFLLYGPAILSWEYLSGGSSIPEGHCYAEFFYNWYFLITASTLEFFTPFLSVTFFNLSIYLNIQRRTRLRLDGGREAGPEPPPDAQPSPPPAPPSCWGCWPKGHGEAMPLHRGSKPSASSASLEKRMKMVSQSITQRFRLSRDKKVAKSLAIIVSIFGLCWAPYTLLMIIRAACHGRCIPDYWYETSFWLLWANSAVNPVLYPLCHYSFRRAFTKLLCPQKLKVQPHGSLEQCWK
Usually Ki stands for the dissociation constant of the complex between target and ligand, obtained from inhibition or displacement. Take `C[C@@H](N)C(=O)N1CCN(CCCOc2ccc(-c3noc(CC4CCCC4)n3)c(F)c2)CC1` [Example 168, (2R)-1-[4-(3-{4-[5-(cyclopentylmethyl)-1,2,4-oxadiazol-3-yl]-3-fluorophenoxy}propyl)-1-piperazinyl]-1-oxo-2-propanamine]: the affinity corresponds to a Ki of 6.79 nM. Then `C[C@@H](NC(=O)c1cccnc1)C(=O)N1CCN(CCCOc2ccc(-c3noc(CC4CCCC4)n3)c(F)c2)CC1` [Example 181, N-{(1R)-2-[4-(3-{4-[5-(cyclopentylmethyl)-1,2,4-oxadiazol-3-yl]-3-fluorophenoxy}propyl)-1-piperazinyl]-1-methyl-2-oxoethyl}nicotinamide], with 1.67 nM; and `Cn1cnc(C[C@@H](N)C(=O)N2CCN(CCCOc3ccc(C(=O)C4CC4)cc3)CC2)c1` [Example 88, (4-(3-(4-((2R)-2-amino-3-(1-methyl-1H-imidazol-4-yl)propanoyl)-1-piperazinyl)propoxy)phenyl)(cyclopropyl)methanone], with 6.56 nM. Next, `C[C@@H](NC(=O)c1ccno1)C(=O)N1CCN(CCCOc2ccc(-c3noc(-c4ccccc4)n3)c(F)c2)CC1` [Example 162, N-[(1R)-2-(4-{3-[3-fluoro-4-(5-phenyl-1,2,4-oxadiazol-3-yl)phenoxy]propyl}-1-piperazinyl)-1-methyl-2-oxoethyl]-5-isoxazolecarboxamide]: 13 nM; `Cc1ccccc1C(=O)N[C@H](C)C(=O)N1CCN(CCCOc2ccc(C(=O)C3CC3)cc2)CC1` [Example 192, N-[(1R)-2-(4-{3-[4-(cyclopropylcarbonyl)phenoxy]propyl}-1-piperazinyl)-1-methyl-2-oxoethyl]-2-methylbenzamide]: 1 nM. Next, `COc1ccc(C(=O)N[C@H](C)C(=O)N2CCN(CCCOc3ccc(-c4noc(CC5CCCC5)n4)c(F)c3)CC2)cc1F` [Example 185, N-{(1R)-2-[4-(3-{4-[5-(cyclopentylmethyl)-1,2,4-oxadiazol-3-yl]-3-fluorophenoxy}propyl)-1-piperazinyl]-1-methyl-2-oxoethyl}-3-fluoro-4-methoxybenzamide]: 3.28 nM; `C[C@@H](NC(=O)c1cccs1)C(=O)N1CCN(CCCOc2ccc(-c3noc(-c4ccccc4)n3)c(F)c2)CC1` [Example 159, N-[(1R)-2-(4-{3-[3-fluoro-4-(5-phenyl-1,2,4-oxadiazol-3-yl)phenoxy]propyl}-1-piperazinyl)-1-methyl-2-oxoethyl]-2-thiophenecarboxamide]: 4.98 nM; `C[C@@H](NC(=O)CCN1CCOCC1)C(=O)N1CCN(CCCOc2ccc(-c3noc(CC4CCCC4)n3)c(F)c2)CC1` [Example 172, N-{(1R)-2-[4-(3-{4-[5-(cyclopentylmethyl)-1,2,4-oxadiazol-3-yl]-3-fluorophenoxy}propyl)-1-piperazinyl]-1-methyl-2-oxoethyl}-3-(4-morpholinyl)propanamide]: 1.22 nM.

For `C[C@@H](NC(=O)c1cccs1)C(=O)N1CCN(CCCOc2ccc(-c3noc(-c4cc(Cl)cc(Cl)c4)n3)c(F)c2)CC1` [Example 189, N-{(1R)-2-[4-(3-{4-[5-(3,5-dichlorophenyl)-1,2,4-oxadiazol-3-yl]-3-fluorophenoxy}propyl)-1-piperazinyl]-1-methyl-2-oxoethyl}-2-thiophenecarboxamide], the Ki amounted to 51.3 nM. `C[C@@H](NC(=O)c1ccco1)C(=O)N1CCCN(CCCOc2ccc(-c3noc(-c4ccccc4)n3)c(F)c2)CC1` [Example 151, N-[(1R)-2-(4-{3-[3-fluoro-4-(5-phenyl-1,2,4-oxadiazol-3-yl)phenoxy]propyl}-1,4-diazepan-1-yl)-1-methyl-2-oxoethyl]-2-furamide]: the affinity, expressed as Ki, was 4.29 nM. Next, `Cc1cc(C)c(C(=O)NCCC(=O)N2CCN(CCCOc3ccc(-c4noc(-c5ccccc5)n4)c(F)c3)CC2)s1` [Example 156, N-[3-(4-{3-[3-fluoro-4-(5-phenyl-1,2,4-oxadiazol-3-yl)phenoxy]propyl}-1-piperazinyl)-3-oxopropyl]-3,5-dimethyl-2-thiophenecarboxamide]: 13.7 nM; `C[C@@H](N)C(=O)N1CCN(CCCOc2ccc(-c3ccc(C#N)cc3)cc2)CC1` [Example 100]: 12.4 nM. Next, `Cc1cc(C)cc(C(=O)N[C@H](C)C(=O)N2CCN(CCCOc3ccc(C(=O)C4CC4)cc3)CC2)c1` [Example 196, N-[(1R)-2-(4-{3-[4-(cyclopropylcarbonyl)phenoxy]propyl}-1-piperazinyl)-1-methyl-2-oxoethyl]-3,5-dimethylbenzamide]: 2.08 nM. Next, `CC[C@@H](N)C(=O)N1CCN(CCCOc2ccc(C(=O)C3CC3)cc2)CC1` [Example 69, (4-(3-(4-((2R)-2-aminobutanoyl)-1-piperazinyl)propoxy)phenyl)(cyclopropyl)methanone]: 1.24 nM. The compound `C[C@@H](N)C(=O)N1CCN(CCCOc2ccc(C(=O)C3CC3)cc2)CC1` [Example 138, (4-(3-(4-((2R)-2-aminopropanoyl)-1-piperazinyl)propoxy)phenyl)(cyclopropyl)methanone] showed an inhibition constant Ki of 0.996 nM. Then `C[C@@H](NC(=O)c1ccco1)C(=O)N1CCCN(CCCOc2ccc(-c3noc(C4CCCC4)n3)c(F)c2)CC1` [Example 144, N-[(1R)-2-(4-{3-[4-(5-cyclopentyl-1,2,4-oxadiazol-3-yl)-3-fluorophenoxy]propyl}-1,4-diazepan-1-yl)-1-methyl-2-oxoethyl]-2-furamide], with 1.36 nM; and `C[C@H](CCOc1ccc(C(=O)C2CC2)cc1)N1CCN(C(=O)[C@@H](C)NC(=O)OC(C)(C)C)CC1` [Example 61, Tert-butyl (1R)-2-(4-((1R)-3-(4-(cyclopropylcarbonyl)phenoxy)-1-methylpropyl)-1-piperazinyl)-1-methyl-2-oxoethylcarbamate], with 0.74 nM. Next, `C[C@@H](NC(=O)c1ccc(C#N)cc1)C(=O)N1CCCN(CCCOc2ccc(-c3noc(CC4CCCC4)n3)c(F)c2)CC1` [Example 179, 4′-cyano-N-{(1R)-2-[4-(3-{4-[5-(cyclopentylmethyl)-1,2,4-oxadiazol-3-yl]-3-fluorophenoxy}propyl)-1,4-diazepan-1-yl]-1-methyl-2-oxoethyl}benzamide]: 1.5 nM. Next, `C[C@@H](NC(=O)OC(C)(C)C)C(=O)N1CCN(CCCOc2ccc(C(=O)C3CC3)cc2)CC1` [Example 64, Tert-butyl (1R)-2-(4-(3-(4-(cyclopropylcarbonyl)phenoxy)propyl)-1-piperazinyl)-1-methyl-2-oxoethylcarbamate]: 2.07 nM; `C[C@@H](NC(=O)c1ccc(F)cc1)C(=O)N1CCN(CCCOc2ccc(-c3noc(CC4CCCC4)n3)c(F)c2)CC1` [Example 174, N-{(1R)-2-[4-(3-{4-[5-(cyclopentylmethyl)-1,2,4-oxadiazol-3-yl]-3-fluorophenoxy}propyl)-1-piperazinyl]-1-methyl-2-oxoethyl}-4-fluorobenzamide]: 0.81 nM. As for `CC(C)CCc1nc(-c2ccc(OCCCN3CCCN(C(=O)[C@@H](C)NC(=O)c4ccco4)CC3)cc2F)no1` [Example 142, N-[(1R)-2-(4-{3-[3-fluoro-4-(5-isopentyl-1,2,4-oxadiazol-3-yl)phenoxy]propyl}-1,4-diazepan-1-yl)-1-methyl-2-oxoethyl]-2-furamide], the affinity corresponds to a Ki of 0.72 nM. This Ki and that of the compound before are within 1.5-fold of each other. Next, `N#Cc1ccc(C(=O)NCCC(=O)N2CCN(CCCOc3ccc(-c4noc(-c5ccccc5)n4)c(F)c3)CC2)cc1` [Example 153, 4′-cyano-N-[3-(4-{3-[3-fluoro-4-(5-phenyl-1,2,4-oxadiazol-3-yl)phenoxy]propyl}-1-piperazinyl)-3-oxopropyl]benzamide]: 26.1 nM.

In turn, `C[C@@H](NC(=O)c1ccc(Cl)cc1)C(=O)N1CCCN(CCCOc2ccc(-c3noc(CC4CCCC4)n3)c(F)c2)CC1` [Example 178, 4-chloro-N-{(1R)-2-[4-(3-{4-[5-(cyclopentylmethyl)-1,2,4-oxadiazol-3-yl]-3-fluorophenoxy}propyl)-1,4-diazepan-1-yl]-1-methyl-2-oxoethyl}benzamide] came in with a Ki of 8.2 nM. Then `C[C@@H](NC(=O)[C@@H]1CCCO1)C(=O)N1CCN(CCCOc2ccc(-c3noc(-c4ccccc4)n3)c(F)c2)CC1` [Example 163, (2S)-N-[(1R)-2-(4-{3-[3-fluoro-4-(5-phenyl-1,2,4-oxadiazol-3-yl)phenoxy]propyl}-1-piperazinyl)-1-methyl-2-oxoethyl]tetrahydro-2-furancarboxamide], with 8.35 nM. Next, `CC(C)Oc1ccc(C(=O)N[C@H](C)C(=O)N2CCN(CCCOc3ccc(-c4noc(CC5CCCC5)n4)c(F)c3)CC2)cc1` [Example 184, N-{(1R)-2-[4-(3-{4-[5-(cyclopentylmethyl)-1,2,4-oxadiazol-3-yl]-3-fluorophenoxy}propyl)-1-piperazinyl]-1-methyl-2-oxoethyl}-4-isopropoxybenzamide]: 10.5 nM; `CCOC(=O)c1nc(-c2ccc(OCCCN3CCN(C(=O)[C@@H](C)NC(=O)c4cccs4)CC3)cc2F)no1` [Example 191, Ethyl 3-{2-fluoro-4-[3-(4-{(2R)-2-[(2-thienylcarbonyl)amino]propanoyl}-1-piperazinyl)propoxy]phenyl}-1,2,4-oxadiazole-5-carboxylate]: 15 nM. Then `N[C@H](COCc1ccccc1)C(=O)N1CCN(CCCOc2ccc(C(=O)C3CC3)cc2)CC1` [Example 75, (4-(3-(4-((2R)-2-amino-3-(benzyloxy)propanoyl)-1-piperazinyl)propoxy)phenyl)(cyclopropyl)methanone], with 4.67 nM.
